Experimental data taken from patent US11109593B2, “Isoxazolin-5-one derivative and herbicide containing same as active ingredient” (HOKKO CHEMICAL INDUSTRY CO., LTD., priority 2017, dated 2021).

Tests used:
Format in all cases: in vivo
[1] = tested on: Amaranthus viridis; assay: Test Example 3: herbicidal effect test by treatment of dry field farming soil (one day after seeding); settings: 120 g/10a active ingredient, evaluated 14 days after treatment
Procedure, shortened: (§1)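 Alluvial dry-field soil in pots, top 1 cm mixed with 20 seeds per weed species. One day after seeding, the water-diluted emulsion was sprayed onto the soil surface at 100 L per 10 ares (120 g active ingredient per 10 ares). Duplicate pots; herbicidal rate (%) from plant dry weight versus untreated, 14 days after treatment.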

[2] = tested on: Echinochloa crus-galli; assay: as above; settings: 120 g/10a active ingredient, evaluated 14 days after treatment
Procedure, shortened: as §1

[3] = tested on: southern crabgrass; assay: as above; settings: 120 g/10a active ingredient, evaluated 14 days after treatment
Procedure, shortened: as §1

[4] = tested on: Chenopodium album; assay: as above; settings: 120 g/10a active ingredient, evaluated 14 days after treatment
Procedure, shortened: as §1

[5] = tested on: Scirpus juncoides; assay: Test Example 1: herbicidal effect test by treatment of rice paddy soil (immediately after seeding); settings: 120 g/10a active ingredient, dry weight vs untreated area, 14 days after treatment
Procedure, shortened: (§2)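 Paddy soil in pots with compound fertilizer, puddled; 30 seeds per species sown at 0–1 cm, flooded ~3 cm, greenhouse. Water-diluted emulsions dropped onto water immediately after seeding at 120 g active ingredient per 10 ares, duplicate. Herbicidal rate (%) from plant dry weight versus untreated, 14 days after treatment.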

[6] = tested on: Echinochloa crus-galli; assay: as above; settings: 120 g/10a active ingredient, dry weight vs untreated area, 14 days after treatment
Procedure, shortened: as §2

[7] = tested on: broad leaf weeds (Lindernia pyxidaria and Monochoria vaginalis); assay: as above; settings: 120 g/10a active ingredient, dry weight vs untreated area, 14 days after treatment
Procedure, shortened: as §2

[8] = tested on: Scirpus juncoides; assay: Test Example 2: herbicidal effect test by treatment during growing period in paddy rice cultivation (seven days after seeding); settings: 120 g/10a active ingredient, assessed 14 days after treatment, dry weight vs untreated area
Procedure, shortened: (§3)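 Seeds sown 0–1 cm deep in puddled, fertilised paddy soil with about 3 cm standing water in a glass greenhouse. Diluted emulsion dropped into the water seven days after seeding at 120 g active ingredient per 10 ares. Herbicidal rate (%) from mean dry weight vs untreated, duplicate, 14 days after treatment.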

[9] = tested on: Echinochloa crus-galli; assay: as above; settings: 120 g/10a active ingredient, assessed 14 days after treatment, dry weight vs untreated area
Procedure, shortened: as §3

[10] = tested on: broad leaf weeds (Lindernia pyxidaria and Monochoria vaginalis); assay: as above; settings: 120 g/10a active ingredient, assessed 14 days after treatment, dry weight vs untreated area
Procedure, shortened: as §3

[11] = tested on: Amaranthus viridis; assay: Test Example 4: herbicidal effect test by treatment of leave and stem in dry field farming (seven days after seeding); settings: 120 g/10a active ingredient; emulsion sprayed seven days after seeding; evaluated 14 days after treatment
Procedure, shortened: (§4)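 Twenty seeds per species were mixed into the top 1 cm of alluvial soil in 36 cm^2 pots; emulsions were sprayed seven days after seeding at 100 L per 10 ares (120 g active ingredient per 10 ares). Herbicidal rate (%) = {1 − treated/untreated mean dry weight} × 100, 14 days after treatment, duplicate.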

[12] = tested on: Echinochloa crus-galli; assay: as above; settings: 120 g/10a active ingredient; emulsion sprayed seven days after seeding; evaluated 14 days after treatment
Procedure, shortened: as §4

[13] = tested on: southern crabgrass; assay: as above; settings: 120 g/10a active ingredient; emulsion sprayed seven days after seeding; evaluated 14 days after treatment
Procedure, shortened: as §4

[14] = tested on: Chenopodium album; assay: as above; settings: 120 g/10a active ingredient; emulsion sprayed seven days after seeding; evaluated 14 days after treatment
Procedure, shortened: as §4

| Compound | herbicidal rate, Amaranthus viridis [1] [%] | herbicidal rate, Echinochloa crus-galli [2] [%] | herbicidal rate, southern crabgrass [3] [%] | herbicidal rate, Chenopodium album [4] [%] | Herbicidal rate (%) Scirpus juncoides [5] [%] | Herbicidal rate (%) Echinochloa crus-galli [6] [%] | Herbicidal rate (%) Lindernia pyxidaria [7] [%] | Herbicidal rate (%) Monochoria vaginalis [7] [%] | Herbicidal rate (%) Scirpus juncoides [8] [%] | Herbicidal rate (%) Echinochloa crus-galli [9] [%] | Herbicidal rate (%) Lindernia pyxidaria [10] [%] | Herbicidal rate (%) Monochoria vaginalis [10] [%] | herbicidal effect (herbicidal rate), Amaranthus viridis [11] [%] | herbicidal effect (herbicidal rate), Echinochloa crus-galli [12] [%] | herbicidal effect (herbicidal rate), southern crabgrass [13] [%] | herbicidal effect (herbicidal rate), Chenopodium album [14] [%] |
| --- | --- | --- | --- | --- | --- | --- | --- | --- | --- | --- | --- | --- | --- | --- | --- | --- |
| COCC(C)n1oc(=O)c(Cc2ccccc2N(C(=O)OC(C)C)S(=O)(=O)C(F)(F)F)c1C (centres unmarked) [Compound 1-647] | 90 | 90 | 90 | 90 | 90 | 90 | 90 | 90 | 90 | 90 | 90 | 90 | 40 | 90 | 90 | 40 |
| CSCCn1oc(=O)c(Cc2ccccc2N(C(=O)OC(C)C)S(=O)(=O)C(F)(F)F)c1C [Compound 1-652] | 90 | 90 | 90 | 90 | 90 | 90 | 90 | 90 | 90 | 90 | 90 | 90 | 40 | 90 | 90 | 40 |
| Cc1c(Cc2ccccc2N(C(=O)OC(C)C)S(=O)(=O)C(F)(F)F)c(=O)on1C(C)c1ccccc1 (centres unmarked) [Compound 1-653] | 90 | 90 | 90 | 90 | 90 | 90 | 90 | 90 | 90 | 90 | 90 | 90 | 40 | 90 | 90 | 40 |
| Cc1c(Cc2ccccc2N(C(=O)OCC(C)C)S(=O)(=O)C(F)(F)F)c(=O)on1C [Compound 1-666] | 0 | 90 | 100 | 40 | 90 | 100 | 80 | 100 | 90 | 100 | 90 | 90 | 40 | 90 | 70 | 50 |
| Cc1c(Cc2ccccc2N(C(=O)OCC(C)C)S(=O)(=O)C(F)(F)F)c(=O)on1C(C)(C)C [Compound 1-668] | 90 | 90 | 90 | 90 | 90 | 90 | 90 | 90 | 90 | 90 | 90 | 90 | 40 | 90 | 90 | 40 |
| CCC(C)n1oc(=O)c(Cc2ccccc2N(C(=O)OCC(C)C)S(=O)(=O)C(F)(F)F)c1C (centres unmarked) [Compound 1-669] | 90 | 90 | 90 | 90 | 90 | 90 | 90 | 90 | 90 | 90 | 90 | 90 | 40 | 90 | 90 | 40 |
| CCC(C)Cn1oc(=O)c(Cc2ccccc2N(C(=O)OCC(C)C)S(=O)(=O)C(F)(F)F)c1C (centres unmarked) [Compound 1-674] | 40 | 80 | 50 | 40 | 90 | 100 | 90 | 90 | 90 | 100 | 70 | 90 | 60 | 70 | 80 | 50 |
| COCC(C)n1oc(=O)c(Cc2ccccc2N(C(=O)OCC(C)C)S(=O)(=O)C(F)(F)F)c1C (centres unmarked) [Compound 1-675] | 90 | 90 | 90 | 90 | 90 | 90 | 90 | 90 | 90 | 90 | 90 | 90 | 40 | 90 | 90 | 40 |
